Experimental data reported in ChEMBL document CHEMBL1132020, “Highly potent inhibitors of the Grb2-SH2 domain” (Bioorg Med Chem Lett, 1999).

What follows are compounds tested against Growth factor receptor-bound protein 2 (Homo sapiens, UniProt P62993) (assay: Inhibition of Grb-SH2 domain binding to phosphorylated carboxy-terminal intracellular domain of epidermal growth factor receptor).
Format: cell-based

Chain of Growth factor receptor-bound protein 2 (P62993 whole entry, the tested form may be a part): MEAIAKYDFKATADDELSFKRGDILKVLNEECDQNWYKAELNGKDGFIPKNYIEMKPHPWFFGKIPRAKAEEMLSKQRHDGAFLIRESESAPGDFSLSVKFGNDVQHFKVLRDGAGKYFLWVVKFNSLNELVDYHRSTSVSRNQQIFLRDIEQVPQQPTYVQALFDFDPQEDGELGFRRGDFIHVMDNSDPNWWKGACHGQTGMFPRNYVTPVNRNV

Row | SMILES | IC50 [nM]
1 | CC(=O)N[C@@H](Cc1ccc(CP(=O)(O)O)cc1)C(=O)NC1(C(=O)N[C@@H](CC(N)=O)C(=O)NCCCn2ccc3cc(Cl)ccc32)CCCCC1 | 59
2 | CC(=O)N[C@@H](Cc1ccc(CP(=O)(O)O)cc1)C(=O)NC1(C(=O)N[C@@H](CC(N)=O)C(=O)NCCCn2ccc3ccccc32)CCCCC1 | 1.2
3 | CC(=O)N[C@@H](Cc1ccc(CP(=O)(O)O)cc1)C(=O)NC1(C(=O)N[C@@H](CC(N)=O)C(=O)NCCCn2ccc3cc(O)ccc32)CCCCC1 | 0.3
4 | COc1ccc2c(CCCNC(=O)[C@H](CC(N)=O)NC(=O)C3(NC(=O)[C@H](Cc4ccc(CP(=O)(O)O)cc4)NC(C)=O)CCCCC3)c[nH]c2c1 | 14
5 | CC(=O)N[C@@H](Cc1ccc(CP(=O)(O)O)cc1)C(=O)NC1(C(=O)N[C@@H](CC(N)=O)C(=O)NCCCc2cn(C)c3ccccc23)CCCCC1 | 9.2
6 | CC(=O)N[C@@H](Cc1ccc(CP(=O)(O)O)cc1)C(=O)NC1(C(=O)N[C@@H](CC(N)=O)C(=O)NCCCn2cc(C)c3ccccc32)CCCCC1 | 81
7 | COc1ccc2c(ccn2CCCNC(=O)[C@H](CC(N)=O)NC(=O)C2(NC(=O)[C@H](Cc3ccc(CP(=O)(O)O)cc3)NC(C)=O)CCCCC2)c1 | 0.9
8 | CC(=O)N[C@@H](Cc1ccc(CP(=O)(O)O)cc1)C(=O)NC1(C(=O)N[C@@H](CC(N)=O)C(=O)NCCCn2ccc3cc(N(C)C)ccc32)CCCCC1 | 3.4
9 | CC(=O)N[C@@H](Cc1ccc(CP(=O)(O)O)cc1)C(=O)NC1(C(=O)N[C@@H](CC(N)=O)C(=O)NCCCn2c(C)cc3ccccc32)CCCCC1 | 14.7
10 | CC(=O)N[C@@H](Cc1ccc(CP(=O)(O)O)cc1)C(=O)NC1(C(=O)N[C@@H](CC(N)=O)C(=O)NCCCn2ccc3cc(C)ccc32)CCCCC1 | 0.4
11 | CC(=O)N[C@@H](Cc1ccc(CP(=O)(O)O)cc1)C(=O)NC1(C(=O)N[C@@H](CC(N)=O)C(=O)NCCCc2c[nH]c3ccccc23)CCCCC1 | 155
